# pIC50: −log10 of the molar value. Where two headings read alike, the source gives them in different places.
# Key:
# [1] = target: PDE4B (aa 152-484, Uniprot ID Q07343) (Homo sapiens (Human), UniProt Q07343); assay: PDE4 SPA assay (scintillation proximity assay); format: biochemical; conditions: read-out: PDE4B2 IC50
# Experimental: Phosphodiesterase (PDE) activity is determined by measuring the effect of a test agent on the activity of the PDE4B enzyme in a scintillation proximity assay (SPA). At the time of assay, approximately 30 μL of PDE4B (aa 152-484, Uniprot ID Q07343) in 50 mM Tris pH 7.5, 1.3 mM MgC2, 0.004% Brij 35 is added to a 384 well white clear bottom polystyrene plate (Corning) containing 1 μL of varying concentrations of test compound. After −10 minutes at room temperature (RT; 21° C.), the assay is initiated by the addition of 20 μL of a mixture of ^3H-labeled (adenosine 3′, 5′-cyclic phosphate, ammonium salt, [2,8-^3H]; Perkin Elmer) and unlabeled cAMP. The final assay conditions are approximately 81.6 pM PDE4B in 50 mM Tris pH 7.5, 1.3 mM MgCl2, 0.004% Brij 35, 1 μM ^3H-labeled/unlabeled cAMP (1425 dpm/pmol) and the indicated final concentration of test compound (approximately 10 μM to […] by 4-fold dilution). The final concentration of DMSO in the assay is approximately 2.0%. After 30 minutes at RT, the assay is terminated by the addition of approximately 20 μL of an aqueous solution of PDE YSI SPA beads (8 mg/mL in water; Perkin Elmer). The beads are allowed to settle for at least 2 hours and the plate is then counted on a MicroBeta2 (Perkin Elmer). The concentrations and resulting effect values for the tested compound are plotted and the concentration of compound required for 50% effect (IC50) is determined with a four-parameter logistic dose response equation (E-WorkBook, ID Business Solutions Ltd.) and shown in Table 17.
# IL-4 = assay: Cytokine assay: IL-4 release from PHA-L stimulated human PBMCs; format: cell-based; conditions: read-out: IL4 IC50
# Experimental: (§1) Cytokine inhibitory activity is determined by measuring the effect of test agent on the release of the cytokines IL-4, IL-13 and IFNγ from human peripheral blood mononuclear cells (PBMCs) stimulated with the T-cell mitogen phytohemagglutinin-L (PHA-L). At the time of assay, human PBMCs (Astarte Biologics) are removed from cryopreservation, thawed quickly at 37° C., diluted in assay medium (RPMI-Gibco 1640 medium, 10% heat inactivated fetal bovine serum (HIFBS), 2 mM glutamine and 10 mM HEPES pH 7.4) and then centrifuged at 250×g for 5 minutes. The resulting cell pellet is re-suspended in assay medium to a concentration of approximately 5×10^6 cells/mL and 50 μL of this cell suspension (approximately 250,000 cells) is added to each well of a 384-well cell culture microtiter plate (Perkin Elmer). Varying concentrations of test compound are then diluted in assay medium and added to the assay plate wells in a volume of 25 μL. After −10 minutes at room temperature (21° C.) the cells are stimulated by the addition of 25 μL of PHA-L (14 μg/mL; Millipore) and the assay plate is placed in an incubator at 37° C. in a humidified environment in 5% carbon dioxide. The final assay conditions are approximately 250,000 human PBMCs per well in assay medium containing 3.5 μg/mL PHA-L and the indicated final concentration of test compound (approximately 10 μM to […] by 4-fold dilution). The final concentration of DMSO in the assay is approximately 0.25%. After 48 hours, the assay plate is removed from the incubator and centrifuged at 250×g for 5 minutes. A portion of the resulting cell supernatant is then used to determine the amount of IL-4, IL-13 and IFNγ in each well. Cytokine measurements are made using human IL-4, IL-13 or IFNγ HTRF assay kits (CisBio) following the manufacturer's assay protocol. The concentrations and resulting effect values for tested compounds are plotted and the concentration of compound required for 50% effect (IC50) is determined with a four-parameter logistic dose response equation (E-WorkBook, ID Business Solutions Ltd.) and shown in Table 17.
# IL-13 = assay: Cytokine assay: IL-13 release from PHA-L stimulated human PBMCs; format: cell-based; conditions: read-out: IL13 IC50
# Experimental: as §1
# IFNγ = assay: Cytokine assay: IFNγ release from PHA-L stimulated human PBMCs; format: cell-based
# Experimental: as §1
# Chain of PDE4B (aa 152-484, Uniprot ID Q07343) (Q07343 324-656): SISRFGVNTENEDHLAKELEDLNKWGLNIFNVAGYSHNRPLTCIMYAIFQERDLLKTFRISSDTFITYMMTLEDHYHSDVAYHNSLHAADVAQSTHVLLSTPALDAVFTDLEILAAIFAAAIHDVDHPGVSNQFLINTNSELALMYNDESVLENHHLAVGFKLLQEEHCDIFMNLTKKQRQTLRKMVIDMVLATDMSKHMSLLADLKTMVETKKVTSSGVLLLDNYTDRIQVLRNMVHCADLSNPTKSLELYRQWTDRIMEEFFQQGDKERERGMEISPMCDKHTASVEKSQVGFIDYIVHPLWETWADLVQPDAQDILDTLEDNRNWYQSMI
SMILES,pIC50 [1],"pIC50 (IL-4; Homo sapiens, PBMC)","pIC50 (IL-13; Homo sapiens, PBMC)","pIC50 (IFNγ; Homo sapiens, PBMC)",pIC50 (IL-4),pIC50 (IL-13),pIC50 (IFNγ)
"CCOc1c(OC)ccc(-c2cncc(C3COB(O)C3)c2)c1F (single isomer, unassigned) [Example 74, 4-(5-(3-ethoxy-2-fluoro-4-methoxyphenyl)pyridin-3-yl)-1,2-oxaborolan-2-ol]",8.52,7.96,6.11,8.57,,,
"COc1ccc(-c2cncc(C3COB(O)C3)c2)cc1OC1CCSCC1 (single isomer, unassigned; enantiomer 1) [Example 170, 4-(5-(4-methoxy-3-((tetrahydro-2H-thiopyran-4-yl)oxy)phenyl)pyridin-3-yl)-1,2-oxaborolan-2-ol, enantiomer 1]",8.42,7.31,5.97,8.55,,,
"CCOc1c(OC)ccc(-c2cccc(C3COB(O)C3)n2)c1F (stereo not shown) [Example 199, 4-(6-(3-ethoxy-2-fluoro-4-methoxyphenyl)pyridin-2-yl)-1,2-oxaborolan-2-ol]",7.98,7.04,5.80,8.34,,,
"CCOc1cc(-c2cncc(C3COB(O)C3)c2)cc(F)c1OC (single isomer, unassigned; enantiomer 2) [Example 214, 4-(5-(3-ethoxy-5-fluoro-4-methoxyphenyl)pyridin-3-yl)-1,2-oxaborolan-2-ol, enantiomer 2]",8.31,,,,7.68,5.70,7.86
"COc1ccc(-c2cncc(C3COB(O)C3)c2)cc1OC (stereo not shown) [Example 32, 4-(5-(3,4-dimethoxyphenyl)pyridin-3-yl)-1,2-oxaborolan-2-ol]",7.89,7.19,5.65,8.07,,,
"COc1ccc(-c2cccc(C3COB(O)C3)c2)cc1OC1CCC1 (stereo not shown) [Example 184, 4-(3′-cyclobutoxy-4′-methoxy-[1,1′-biphenyl]-3-yl)-1,2-oxaborolan-2-ol]",9.10,7.10,5.85,8.35,,,
"COc1ccc(-c2cccc(C3COB(O)C3)n2)c(C#N)c1OC1CCCC1 (stereo not shown) [Example 226, 2-(cyclopentyloxy)-6-(6-(2-hydroxy-1,2-oxaborolan-4-yl)pyridin-2-yl)-3-methoxybenzonitrile]",8.06,7.61,5.60,7.75,,,
"COc1ccc(-c2cc(C3=CB(O)OC3)ccn2)cc1OC [Example 227, 4-(2-(3,4-dimethoxphenyl)pyridin-4-yl)-1,2-oxaborol-2(5H)-ol]",8.10,6.54,5.59,8.04,,,
"COc1cc(C2COB(O)C2)nc(-c2ccc(OC)c(OC3CCCC3)c2)n1 (stereo not shown) [Example 132, 4-(2-(3-(cyclopentyloxy)-4-methoxyphenyl)-6-methoxypyrimidin-4-yl)-1,2-oxaborolan-2-ol]",8.58,7.89,6.22,8.62,,,
"CCOc1cc(C2COB(O)C2)nc(-c2ccc(OC)c(OCC)c2)n1 (single isomer, unassigned; enantiomer 1) [Example 223, 4-(6-ethoxy-2-(3-ethoxy-4-methoxyphenyl)pyrimidin-4-yl)-1,2-oxaborolan-2-ol, enantiomer 1]",8.18,7.51,5.57,7.65,,,
"CCOc1c(OC)cc(F)c(-c2cncc(C3COB(O)C3)c2)c1F (stereo not shown) [Example 163, 4-(5-(3-ethoxy-2,6-difluoro-4-methoxyphenyl)pyridin-3-yl)-1,2-oxaborolan-2-ol]",8.43,7.51,5.60,7.85,,,
"CCOc1c(OC)ccc(-c2cccc(C3COB(O)C3)c2)c1C#N (single isomer, unassigned; enantiomer 2) [Example 192, 3-ethoxy-3′-(2-hydroxy-1,2-oxaborolan-4-yl)-4-methoxy-[1,1′-biphenyl]-2-carbonitrile, enantiomer 2]",8.67,7.83,5.82,8.27,,,
"CCOc1c(OC)ccc(-c2cncc(C3COB(O)C3)c2)c1C(F)F (single isomer, unassigned) [Example 11, 4-(5-(2-(difluoromethyl)-3-ethoxy-4-methoxyphenyl)pyridin-3-yl)-1,2-oxaborolan-2-ol]",7.48,,,,6.85,5.00,7.17

# Results, then the molecule that gave them:
pIC50 [1],"pIC50 (IL-4; Homo sapiens, PBMC)","pIC50 (IL-13; Homo sapiens, PBMC)","pIC50 (IFNγ; Homo sapiens, PBMC)",pIC50 (IL-4),pIC50 (IL-13),pIC50 (IFNγ),SMILES
8.92,7.61,6.12,7.62,,,,"CCCOc1cccc(-c2cncc(C3COB(O)C3)c2)c1 (single isomer, unassigned) [Example 146, 4-(5-(3-propoxyphenyl)pyridin-3-yl)-1,2-oxaborolan-2-ol]"
9.01,7.31,6.00,8.26,,,,"CCOc1c(OC)ccc(-c2cccc(C3COB(O)C3)c2)c1F (stereo not shown) [Example 166, 4-(3′-ethoxy-2′-fluoro-4′-methoxy-[1,1′-biphenyl]-3-yl)-1,2-oxaborolan-2-ol]"
9.17,6.68,5.87,8.56,,,,"CCOc1cc(-c2cncc([C@H]3COB(O)C3)c2)ccc1OC [Example 2, (S)-4-(5-(3-ethoxy-4-methoxyphenyl)pyridin-3-yl)-1,2-oxaborolan-2-ol]"
8.70,8.86,5.56,8.95,,,,"CCCOc1c(OC)ccc(-c2cncc(C3COB(O)C3)c2)c1OC (stereo not shown) [Example 167, 4-(5-(2,4-dimethoxy-3-propoxphenyl)pyridin-3-yl)-1,2-oxaborolan-2-ol]"
9.14,8.24,5.93,8.13,,,,"CCOc1cc(-c2cncc(C3COB(O)C3)c2)cc(C#N)c1OC (single isomer, unassigned) [Example 119, 3-ethoxy-5-(5-(2-hydroxy-1,2-oxaborolan-4-yl)pyridin-3-yl)-2-methoxybenzonitrile]"
8.84,8.49,5.55,8.64,,,,"CCCOc1cc(-c2cc(C3COB(O)C3)cnc2C)cnc1OC (stereo not shown) [Example 218, 4-(6′-methoxy-2-methyl-5′-propoxy-[3,3′-bipyridin]-5-yl)-1,2-oxaborolan-2-ol]"
8.86,6.79,6.08,8.22,,,,"COc1ccc(-c2cccc(C3COB(O)C3)c2)nc1OC (stereo not shown) [Example 152, 4-(3-(5,6-dimethoxypyridin-2-yl)phenyl)-1,2-oxaborolan-2-ol]"
8.86,,,,7.88,6.13,9.09,"COc1ccc(-c2cncc(C3COB(O)C3)c2)cc1OC1CCSC1 (stereo not shown) [Example 79, 4-(5-(4-methoxy-3-((tetrahydrothiophen-3-yl)oxy)phenyl)pyridin-3-yl)-1,2-oxaborolan-2-ol]"
8.70,8.90,5.53,8.76,,,,"CCCOc1nc(-c2cc(C3COB(O)C3)cnc2C)ccc1OC (single isomer, unassigned; enantiomer 1) [Example 231, (−) 4-(5-methoxy-2′-methyl-6-propoxy-[2,3′-bipyridin]-5′-yl)-1,2-oxaborolan-2-ol, enantiomer 1]"

# Source: patent US11559538B2, “Substituted 1,2-oxaborolan-2-ols as PDE4 inhibitors” (Pfizer Inc., priority 2018, dated 2023)
